From ChEMBL document CHEMBL1201862, “PubChem BioAssay data set” (2004)
Calls of active or inactive are those of the source.

What was measured:
Leucine aminopeptidase = target: T1, Leucine aminopeptidase (Plasmodium falciparum 3D7, UniProt Q8IL11); assay: P. falciparum M17LAP inhibitors, primary screen, biochemical, fluorogenic H-Leu-NHMec substrate, 1536-well (AID 1619); format: functional
T1 sequence (Q8IL11 whole entry): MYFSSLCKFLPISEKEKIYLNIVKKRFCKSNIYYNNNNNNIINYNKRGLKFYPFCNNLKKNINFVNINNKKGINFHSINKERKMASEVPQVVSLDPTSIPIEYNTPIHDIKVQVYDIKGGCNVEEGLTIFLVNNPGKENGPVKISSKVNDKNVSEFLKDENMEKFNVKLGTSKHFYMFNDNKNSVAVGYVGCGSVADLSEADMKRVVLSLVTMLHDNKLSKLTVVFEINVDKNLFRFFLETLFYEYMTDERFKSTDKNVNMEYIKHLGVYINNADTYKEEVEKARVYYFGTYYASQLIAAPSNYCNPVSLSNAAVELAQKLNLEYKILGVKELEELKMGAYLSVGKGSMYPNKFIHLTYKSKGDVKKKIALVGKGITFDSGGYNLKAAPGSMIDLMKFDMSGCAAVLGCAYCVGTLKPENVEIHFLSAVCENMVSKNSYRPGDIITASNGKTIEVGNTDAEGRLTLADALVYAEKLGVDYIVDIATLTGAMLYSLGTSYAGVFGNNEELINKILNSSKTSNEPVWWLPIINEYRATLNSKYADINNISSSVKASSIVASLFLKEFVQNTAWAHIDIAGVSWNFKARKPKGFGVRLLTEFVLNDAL

cells [1] = format: functional, cell-based
cells [2] = format: functional, cell-based; remark: listed apart in the source
Ion channel NompC = Ion channel NompC (Danio rerio, UniProt Q7T1G6); assay: Fluorescence counterscreen assay for TRPML3 agonists: dose response cell-based high-throughput screening assay to identify agonists of the transient receptor potential channel N1 (TRPN1). [Related pubchem assays: 1526, 1424, 1448 ]; format: functional
Mucolipin-3 = target: T2, Mucolipin-3 (Homo sapiens, UniProt Q8TDD5); assay: Dose response cell-based high-throughput screening assay for agonists of the transient receptor potential channel ML3 (TRPML3). [Related pubchem assays: 1526, 1424, 1448 ]; format: functional
T2 sequence (Q8TDD5 whole entry): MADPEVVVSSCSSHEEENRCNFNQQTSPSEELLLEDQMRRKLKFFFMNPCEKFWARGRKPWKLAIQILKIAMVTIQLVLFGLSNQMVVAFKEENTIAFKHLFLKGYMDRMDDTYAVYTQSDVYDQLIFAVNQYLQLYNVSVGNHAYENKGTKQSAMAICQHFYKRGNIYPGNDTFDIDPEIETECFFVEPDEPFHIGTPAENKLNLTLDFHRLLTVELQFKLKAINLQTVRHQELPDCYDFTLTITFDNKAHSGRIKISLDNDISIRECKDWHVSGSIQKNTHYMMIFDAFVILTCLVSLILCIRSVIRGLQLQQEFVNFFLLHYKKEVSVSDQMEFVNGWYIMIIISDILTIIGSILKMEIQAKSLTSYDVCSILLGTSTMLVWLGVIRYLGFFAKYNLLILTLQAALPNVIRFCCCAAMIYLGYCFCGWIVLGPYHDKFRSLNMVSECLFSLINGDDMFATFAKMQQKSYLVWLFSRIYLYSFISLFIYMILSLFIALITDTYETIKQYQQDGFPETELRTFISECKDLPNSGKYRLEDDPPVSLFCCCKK

H4 = assay: Luminescence Cell-Based Dose Response HTS to Identify Activators of 5'UTR Stem-Loop Driven Prion Protein mRNA Translation in H4 Neuroglioblastoma Cells. [Related pubchem assays: 1829 (Project Summary), 1814 (Primary HTS)]; format: functional; details: Homo sapiens
[3] = Luminescence Cell-Based Dose Confirmation HTS to Identify Activators of 5'UTR Stem-Loop Driven Alpha-Synuclein mRNA Translation in H4 Neuroglioblastoma Cells. [Related pubchem assays: 1829 (Project Summary), 1814 (Primary HTS)]; format: functional
[4] = cytotoxicity in KRAS-transformed pancreatic duct cells, primary screen, cell-based, fluorescence, HTS (AID 431); format: functional; details: Homo sapiens;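 note: cell line used: HPDE-C7K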
[5] = Luminescence Cell-Based Dose Response HTS to Identify Activators of Luciferase Translation or Activity in H4 […] Cells. [Related pubchem assays: 1829 (Project Summary), 1814 (Primary HTS)]; format: functional
[6] = cytotoxicity in HPDE-C7 cells, cell-based, fluorescence, HTS (AID 430); format: functional; details: Homo sapiens
cells [7] = assay: cells
[8] = target: FAD-linked sulfhydryl oxidase ALR (Homo sapiens, UniProt P55789); assay: inhibitors of human ALR sulfhydryl oxidase, dose response, biochemical, H2O2 detection, luminescence, cherry-pick (AID 493248)
[9] = target: T3, Mannose-6-phosphate isomerase (Homo sapiens, UniProt P34949); assay: human PMI inhibitors, high substrate, primary screen, biochemical, fluorescence intensity, high mannose 6-phosphate (AID 1220)
T3 sequence (P34949 whole entry): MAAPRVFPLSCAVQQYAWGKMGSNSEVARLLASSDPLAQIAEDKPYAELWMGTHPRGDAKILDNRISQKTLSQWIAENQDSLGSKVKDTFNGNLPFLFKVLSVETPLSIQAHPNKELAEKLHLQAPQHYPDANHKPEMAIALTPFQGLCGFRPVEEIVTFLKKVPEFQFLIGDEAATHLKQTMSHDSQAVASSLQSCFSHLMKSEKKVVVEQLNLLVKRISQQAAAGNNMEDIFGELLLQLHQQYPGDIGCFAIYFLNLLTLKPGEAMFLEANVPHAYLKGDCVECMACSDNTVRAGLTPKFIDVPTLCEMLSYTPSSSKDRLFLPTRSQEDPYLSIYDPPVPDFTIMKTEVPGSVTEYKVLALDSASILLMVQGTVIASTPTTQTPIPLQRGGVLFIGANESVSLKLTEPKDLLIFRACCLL

[10] = target: T3, Mannose-6-phosphate isomerase; assay: inhibitors of human PMI, primary screen, biochemical, fluorescence intensity, coupled assay (AID 1209)
Estrogen receptor beta = Estrogen receptor beta (Homo sapiens, UniProt Q92731); assay: ERβ–SRC-3 coactivator interaction inhibitors, confirmation, orthogonal assay, biochemical, ELISA, streptavidin-HRP readout (AID 1060)
[11] = target: Eukaryotic translation initiation factor 4E (Mus musculus, UniProt P63073); assay: eIF4E–eIF4G protein interaction inhibitors, dose response, biochemical, TR-FRET (AID 855); format: functional;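 note: potency for disrupting eIF4E binding to eIF4GI seen as loss of FRET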
[12] = target: Induced myeloid leukemia cell differentiation protein Mcl-1 (Homo sapiens, UniProt Q07820); format: functional
[13] = target: T4, Epstein-Barr nuclear antigen 1 (Epstein-Barr virus (strain B95-8) (HHV-4) (Human herpesvirus 4), UniProt P03211); assay: EBNA-1 inhibitors, dose response, biochemical, fluorescence polarization, 1536-well (AID 2381); set-up: species or system human gammaherpesvirus 4;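 note: fluorescence polarization of a Cy5 DNA probe bound by EBNA-1 protein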
T4 sequence (P03211 whole entry): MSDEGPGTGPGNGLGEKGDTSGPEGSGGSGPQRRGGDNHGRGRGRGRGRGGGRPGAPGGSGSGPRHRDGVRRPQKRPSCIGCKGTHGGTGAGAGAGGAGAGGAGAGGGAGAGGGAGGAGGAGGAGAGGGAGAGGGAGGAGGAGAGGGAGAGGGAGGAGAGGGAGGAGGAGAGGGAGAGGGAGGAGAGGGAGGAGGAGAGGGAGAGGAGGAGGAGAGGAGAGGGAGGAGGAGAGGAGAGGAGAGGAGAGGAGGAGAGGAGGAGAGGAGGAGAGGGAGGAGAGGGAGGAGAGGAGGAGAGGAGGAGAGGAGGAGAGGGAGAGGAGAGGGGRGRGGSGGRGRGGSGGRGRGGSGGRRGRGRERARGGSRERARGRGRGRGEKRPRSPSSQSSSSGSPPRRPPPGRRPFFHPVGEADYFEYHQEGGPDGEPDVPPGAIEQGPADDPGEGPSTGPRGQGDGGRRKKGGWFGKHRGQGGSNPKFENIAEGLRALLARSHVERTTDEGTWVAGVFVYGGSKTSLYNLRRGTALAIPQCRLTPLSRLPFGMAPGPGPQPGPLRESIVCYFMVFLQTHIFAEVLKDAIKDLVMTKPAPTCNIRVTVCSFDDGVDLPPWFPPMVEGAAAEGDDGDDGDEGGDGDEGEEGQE

[14] = target: T5, Lytic switch protein BZLF1 (Epstein-Barr virus (strain B95-8) (HHV-4) (Human herpesvirus 4), UniProt P03206); assay: EBV ZTA inhibitors, dose response, counter-screen for EBNA-1 inhibitor project, biochemical, fluorescence polarization, Epstein-Barr virus, 1536-well (AID 2377); set-up: species or system human gammaherpesvirus 4;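 note: fluorescence polarization of Cy5-labelled ZRE DNA probe bound by purified Zta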
T5 sequence (P03206 whole entry): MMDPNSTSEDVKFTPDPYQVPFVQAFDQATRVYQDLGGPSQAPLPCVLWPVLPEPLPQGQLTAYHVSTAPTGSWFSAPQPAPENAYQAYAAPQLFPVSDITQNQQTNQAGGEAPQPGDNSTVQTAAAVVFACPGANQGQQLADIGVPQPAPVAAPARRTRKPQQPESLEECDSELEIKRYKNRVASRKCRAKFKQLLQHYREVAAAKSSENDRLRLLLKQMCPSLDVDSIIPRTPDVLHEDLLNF

[15] = target: T6, RNA-binding protein pos-1 (Caenorhabditis elegans, UniProt G5EF15); assay: inhibitors of POS-1/mex-3 RNA binding, dose response, biochemical, fluorescence polarization (AID 1964);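 note: purified POS-1 fused to maltose binding protein made in E. coli; potency of compounds blocking POS-1 binding to fluorescent RNA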
T6 sequence (G5EF15 whole entry): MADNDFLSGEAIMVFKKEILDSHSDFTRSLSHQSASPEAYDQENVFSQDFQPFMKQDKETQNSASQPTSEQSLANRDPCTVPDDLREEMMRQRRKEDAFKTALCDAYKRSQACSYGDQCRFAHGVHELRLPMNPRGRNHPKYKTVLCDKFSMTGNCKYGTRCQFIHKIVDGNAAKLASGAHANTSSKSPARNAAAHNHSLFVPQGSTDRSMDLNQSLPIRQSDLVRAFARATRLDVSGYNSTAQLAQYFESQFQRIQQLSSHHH

[16] = target: T7, Zinc finger protein mex-5 (Caenorhabditis elegans, UniProt Q9XUB2); assay: MEX-5/TCR-2 RNA interaction inhibitors, dose response, biochemical, C. elegans, fluorescence polarization (AID 1960)
T7 sequence (Q9XUB2 whole entry): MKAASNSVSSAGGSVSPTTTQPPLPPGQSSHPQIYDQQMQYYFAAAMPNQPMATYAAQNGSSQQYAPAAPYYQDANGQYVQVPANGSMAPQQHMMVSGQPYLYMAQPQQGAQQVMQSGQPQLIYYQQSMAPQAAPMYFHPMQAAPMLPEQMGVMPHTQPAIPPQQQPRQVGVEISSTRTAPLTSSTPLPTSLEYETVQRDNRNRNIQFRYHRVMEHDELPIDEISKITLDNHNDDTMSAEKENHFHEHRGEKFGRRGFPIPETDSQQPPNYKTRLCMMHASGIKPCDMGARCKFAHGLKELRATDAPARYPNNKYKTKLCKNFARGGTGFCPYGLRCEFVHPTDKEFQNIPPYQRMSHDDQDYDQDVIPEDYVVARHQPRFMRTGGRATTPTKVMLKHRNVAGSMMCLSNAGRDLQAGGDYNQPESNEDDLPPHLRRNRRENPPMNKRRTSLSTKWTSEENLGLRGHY

[17] = target: DNA dC->dU-editing enzyme APOBEC-3G (Homo sapiens, UniProt Q9HC16); assay: Dose Response confirmation of small molecule APOBEC3G DNA Deaminase Inhibitors via a fluorescence-based single-stranded DNA deaminase assay. [Related pubchem assays (depositor defined):AID493012, AID493028]; format: functional
Sequence of DNA dC->dU-editing enzyme APOBEC-3G (Q9HC16 whole entry): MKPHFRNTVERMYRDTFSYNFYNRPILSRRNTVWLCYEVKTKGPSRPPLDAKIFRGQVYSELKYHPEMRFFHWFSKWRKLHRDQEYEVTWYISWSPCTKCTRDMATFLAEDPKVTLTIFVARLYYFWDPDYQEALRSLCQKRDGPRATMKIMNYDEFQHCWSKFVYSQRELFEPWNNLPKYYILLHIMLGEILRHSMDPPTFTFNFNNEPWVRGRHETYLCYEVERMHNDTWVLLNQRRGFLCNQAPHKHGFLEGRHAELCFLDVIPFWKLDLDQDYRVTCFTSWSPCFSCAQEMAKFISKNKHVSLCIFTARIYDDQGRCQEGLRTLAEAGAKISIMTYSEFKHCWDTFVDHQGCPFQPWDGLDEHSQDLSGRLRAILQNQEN

Sequence of Ion channel NompC (Q7T1G6 whole entry): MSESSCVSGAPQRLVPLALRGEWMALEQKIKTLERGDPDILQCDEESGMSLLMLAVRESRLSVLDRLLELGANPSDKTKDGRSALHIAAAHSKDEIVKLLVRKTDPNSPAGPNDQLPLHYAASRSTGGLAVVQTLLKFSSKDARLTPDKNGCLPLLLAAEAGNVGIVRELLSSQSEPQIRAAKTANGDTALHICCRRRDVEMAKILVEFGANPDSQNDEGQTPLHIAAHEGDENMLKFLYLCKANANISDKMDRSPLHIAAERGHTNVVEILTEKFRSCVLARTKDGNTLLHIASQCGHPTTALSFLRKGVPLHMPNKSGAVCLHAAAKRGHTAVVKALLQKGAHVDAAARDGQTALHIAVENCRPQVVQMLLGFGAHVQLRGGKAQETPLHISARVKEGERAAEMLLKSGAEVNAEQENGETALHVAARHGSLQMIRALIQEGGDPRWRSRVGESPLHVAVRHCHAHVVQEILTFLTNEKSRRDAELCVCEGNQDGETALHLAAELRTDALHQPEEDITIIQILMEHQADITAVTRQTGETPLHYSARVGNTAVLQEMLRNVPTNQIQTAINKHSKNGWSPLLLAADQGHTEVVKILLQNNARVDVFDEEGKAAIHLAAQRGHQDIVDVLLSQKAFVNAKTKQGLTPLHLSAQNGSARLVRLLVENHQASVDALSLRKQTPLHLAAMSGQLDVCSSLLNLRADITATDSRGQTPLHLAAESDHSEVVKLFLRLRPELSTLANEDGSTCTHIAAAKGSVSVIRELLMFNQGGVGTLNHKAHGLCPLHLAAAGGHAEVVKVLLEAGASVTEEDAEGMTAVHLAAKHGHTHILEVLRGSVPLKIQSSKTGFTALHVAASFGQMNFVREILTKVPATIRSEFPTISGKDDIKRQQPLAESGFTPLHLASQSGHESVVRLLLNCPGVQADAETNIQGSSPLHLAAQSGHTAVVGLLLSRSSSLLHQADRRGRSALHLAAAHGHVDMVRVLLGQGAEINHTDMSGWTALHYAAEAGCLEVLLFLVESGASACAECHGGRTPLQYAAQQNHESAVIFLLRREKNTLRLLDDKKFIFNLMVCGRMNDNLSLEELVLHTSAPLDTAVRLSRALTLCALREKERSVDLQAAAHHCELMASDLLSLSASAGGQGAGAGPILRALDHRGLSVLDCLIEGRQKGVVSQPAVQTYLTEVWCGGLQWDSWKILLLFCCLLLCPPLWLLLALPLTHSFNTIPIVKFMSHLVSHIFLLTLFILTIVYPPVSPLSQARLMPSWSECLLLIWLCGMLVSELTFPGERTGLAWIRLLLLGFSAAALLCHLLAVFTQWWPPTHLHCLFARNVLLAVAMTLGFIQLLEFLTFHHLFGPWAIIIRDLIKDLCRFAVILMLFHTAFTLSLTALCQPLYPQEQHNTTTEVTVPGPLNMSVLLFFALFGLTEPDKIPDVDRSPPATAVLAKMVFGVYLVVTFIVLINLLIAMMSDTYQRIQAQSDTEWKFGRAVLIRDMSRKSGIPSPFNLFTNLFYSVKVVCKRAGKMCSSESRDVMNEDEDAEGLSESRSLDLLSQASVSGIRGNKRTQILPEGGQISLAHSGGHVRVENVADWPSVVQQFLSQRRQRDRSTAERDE
Sequence of Induced myeloid leukemia cell differentiation protein Mcl-1 (Q07820 whole entry): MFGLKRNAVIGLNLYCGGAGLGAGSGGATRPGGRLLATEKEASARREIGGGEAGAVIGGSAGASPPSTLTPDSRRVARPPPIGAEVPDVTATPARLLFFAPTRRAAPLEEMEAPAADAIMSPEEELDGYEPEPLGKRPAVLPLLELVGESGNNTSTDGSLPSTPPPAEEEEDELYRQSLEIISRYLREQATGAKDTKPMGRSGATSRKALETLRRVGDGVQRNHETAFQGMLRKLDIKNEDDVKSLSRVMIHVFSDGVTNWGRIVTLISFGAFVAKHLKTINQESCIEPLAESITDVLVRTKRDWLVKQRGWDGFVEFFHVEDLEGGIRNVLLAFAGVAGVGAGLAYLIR
Sequence of Eukaryotic translation initiation factor 4E (P63073 whole entry): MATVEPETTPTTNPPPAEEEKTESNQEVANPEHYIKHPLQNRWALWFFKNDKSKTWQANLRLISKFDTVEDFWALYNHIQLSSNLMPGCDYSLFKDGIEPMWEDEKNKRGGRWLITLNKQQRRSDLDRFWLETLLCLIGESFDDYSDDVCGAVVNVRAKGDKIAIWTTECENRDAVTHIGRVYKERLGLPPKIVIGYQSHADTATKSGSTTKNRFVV
Sequence of Estrogen receptor beta (Q92731 whole entry): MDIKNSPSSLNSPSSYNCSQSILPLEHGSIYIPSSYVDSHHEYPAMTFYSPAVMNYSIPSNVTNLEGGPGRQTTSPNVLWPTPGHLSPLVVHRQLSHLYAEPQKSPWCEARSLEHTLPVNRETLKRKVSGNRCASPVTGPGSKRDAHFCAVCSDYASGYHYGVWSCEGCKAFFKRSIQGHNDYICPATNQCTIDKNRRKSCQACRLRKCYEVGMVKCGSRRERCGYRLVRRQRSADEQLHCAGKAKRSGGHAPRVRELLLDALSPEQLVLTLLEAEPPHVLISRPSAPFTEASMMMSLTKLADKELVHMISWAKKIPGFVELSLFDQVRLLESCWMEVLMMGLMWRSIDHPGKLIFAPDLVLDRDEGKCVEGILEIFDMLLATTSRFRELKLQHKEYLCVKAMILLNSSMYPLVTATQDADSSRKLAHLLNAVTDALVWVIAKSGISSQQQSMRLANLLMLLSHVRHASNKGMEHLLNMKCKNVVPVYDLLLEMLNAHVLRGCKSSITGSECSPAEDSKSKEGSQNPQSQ
Sequence of FAD-linked sulfhydryl oxidase ALR (P55789 whole entry): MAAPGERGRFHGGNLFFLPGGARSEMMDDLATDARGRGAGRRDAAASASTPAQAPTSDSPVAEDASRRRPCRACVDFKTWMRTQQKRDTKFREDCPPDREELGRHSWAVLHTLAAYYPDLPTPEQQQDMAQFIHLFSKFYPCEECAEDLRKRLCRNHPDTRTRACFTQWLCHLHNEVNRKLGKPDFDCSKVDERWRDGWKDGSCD

Cc1nc(NS(=O)(=O)c2ccccc2)sc1C(=O)NN
IC50 (Leucine aminopeptidase): 114 µM (active)

CC(C)CC1NC(=O)N(Cc2cc(=O)n3ccsc3n2)C1=O (stereo unspecified)
EC50 (cells [1]): > 350 µM (not active) | EC50 (cells [2]): > 350 µM (not active)

CCCN(CCC)S(=O)(=O)c1ccc(C(=O)N2CCCc3ccccc32)cc1
EC50 (Ion channel NompC): > 29.9 µM (not active) | EC50 (Mucolipin-3): 1.33 µM (active)

CC1(C)Cc2c(c(N3CCOCC3)nc3snc(N)c23)CO1
EC50 (H4): > 120 µM (not active) | EC50 [3]: 40.9 µM (active) | EC50 [4]: 7.17 µM (active) | EC50 [5]: > 120 µM (not active) | EC50 [6]: 7.52 µM (active)

CC(=O)N1CCN(C2=NC(=O)/C(=C/c3ccc(OS(=O)(=O)c4ccccc4)cc3)S2)CC1
IC50 (cells [7]): 37.9 µM (active)

Cc1cccc(Nc2ncnc3[nH]cnc23)c1
AC50 [8]: 75.3 µM (active) | IC50 (Leucine aminopeptidase): 71.4 µM (active)

N#Cc1c(NCCCO)nc(NCc2ccccc2)c2c1CCN(Cc1ccccc1)C2
EC50 [4]: 11.9 µM (active) | IC50 [9]: > 50 µM (not active) | EC50 [6]: 19.8 µM (active)

Cc1c(NC(=O)CSc2ccccc2F)c(=O)n(-c2ccccc2)n1C
IC50 [10]: > 50 µM (not active)

Nc1c(C(=O)NCc2ccco2)sc2nc3c(cc12)C(=O)CCC3
IC50 (Estrogen receptor beta): 6.25 µM (not active) | IC50 [11]: > 64 µM (inactive) | IC50 [12]: 3.38 µM (active)

CCCCNC(=O)CC1N=C2c3ccccc3N=C(SCC(=O)Nc3ccc(OC)cc3)N2C1=O (stereo unspecified)
IC50 (cells [7]): 37 µM (active)

Cc1ccc(NC(=O)CCn2c(=S)oc3ccccc32)cc1
IC50 [13]: 14.2 µM (not active) | IC50 [14]: > 111 µM (not active)

c1ccc(CSc2nnc(-c3ccco3)o2)cc1
EC50 (cells [1]): > 350 µM (not active) | EC50 (cells [2]): > 350 µM (not active)

Nc1cc(N)nc(SCC(=O)Nc2ccc3c(c2)OCCCO3)n1
IC50 (Leucine aminopeptidase): 14.4 µM (active)

CN(C)c1ccc(/C=C(\C#N)C(=O)NCc2ccco2)cc1
IC50 [13]: 15 µM (not active) | IC50 [14]: 32 µM (not active) | EC50 [15]: > 300 µM (not active) | EC50 [16]: 23.7 µM (active)

NC(=O)c1cc(-c2ccccc2)sc1NC(=O)Cc1ccc(S(=O)(=O)N2CCOCC2)s1
IC50 [13]: > 5.47 µM (active) | IC50 [14]: > 111 µM (not active)

CC(C)[C@H](NS(=O)(=O)c1ccc2c(c1)OCCO2)C(=O)OCC(=O)Nc1cccc(Cl)c1Cl
EC50 (Ion channel NompC): > 29.9 µM (not active) | EC50 (Mucolipin-3): 3.69 µM (active)

Cc1cccc(-c2noc(CN(C(C)C)S(=O)(=O)c3ccc(F)cc3)n2)c1
EC50 (Ion channel NompC): > 29.9 µM (not active) | EC50 (Mucolipin-3): 1.77 µM (active)

O=C1C2C3C=CC(C3)C2C(=O)N1CCCCN1C(=O)C2C3C=CC(C3)C2C1=O (stereo unspecified)
IC50 [11]: > 64 µM (inactive)

Cc1[nH]c2ccccc2c1/C=N/Nc1ccc([N+](=O)[O-])cc1
IC50 (cells [7]): 27 µM (active) | IC50 [12]: < 0.4 µM (active)

COc1ccc(Cc2nnc(S)n2N)cc1OC
IC50 [10]: 31.9 µM (active) | IC50 [17]: 17.8 µM (active)
